In patent US12171230B2, “Herbicidal compositions” (Bayer Aktiengesellschaft, priority 2018, dated 2024):

Legend:
Assay type in all cases: in vivo
[1] = test system: Amaranthus palmeri; assay: Post-emergence herbicidal action against Amaranthus palmeri; details: Amaranthus palmeri, post-emergence, 504 h
Protocol: (§1) When the observed efficacies exceed the formal sum total of the values of the tests with individual applications, they also exceed the expected value according to Colby, which is calculated using the formula below and is likewise regarded as an indication of synergism (cf. S. R. Colby; in Weeds 15 (1967) p. 20 to 22): E^C=A+B−([…])
(§2) Here: • A=efficacy of the active compound (A) in % at an application rate of a g a.i./ha; • B=efficacy of the active compound (B) in % at an application rate of b g a.i./ha; • E^C=expected value of the effect of the combination (A)+(B) in % at the combined application rate a+b g a.i./ha.
(§3) Seeds or rhizome pieces of mono- and dicotyledonous weeds are placed in sandy loam in pots, covered with soil and grown in a greenhouse under good growth conditions (temperature, air humidity, water supply). Three weeks after sowing, the test plants were treated at the three-leaf stage with the compositions according to the invention. The compositions according to the invention formulated as spray powders or as emulsion concentrates were sprayed onto the green plant parts in various dosages with an application rate of 300 to 800 l/ha of water (equivalent). After the test plants have been left to stand in the greenhouse under optimal growth conditions for about 3 to 4 weeks, the action of the preparations is scored visually in comparison to untreated controls. The compositions according to the invention also have good post-emergence herbicidal activity against a broad spectrum of economically important gramineous and broadleaf weeds.

[2] = test system: Poa annua; assay: Post-emergence herbicidal action against Poa annua; details: for Herbicidal action in [%] 28 DAT against Poa annua: post-emergence
Protocol: as §1, §2, §3

[3] = test system: Centaurea cyano; assay: Post-emergence herbicidal action against Centaurea cyano
Protocol: Seeds or rhizome pieces of mono- and dicotyledonous weeds are placed in sandy loam in pots, covered with soil and grown in a greenhouse under good growth conditions (temperature, air humidity, water supply). Three weeks after sowing, the test plants were treated at the three-leaf stage with the compositions according to the invention. The compositions according to the invention formulated as spray powders or as emulsion concentrates were sprayed onto the green plant parts in various dosages with an application rate of 300 to 800 l/ha of water (equivalent).

[4] = test system: Matricaria inodora; assay: Post-emergence herbicidal action against Matricaria inodora
[5] = test system: Alopecurus myosuroides; assay: Post-emergence herbicidal action against Alopecurus myosuroides
[6] = test system: Bromus sterilis; assay: Post-emergence herbicidal action against Bromus sterilis
[7] = test system: Lolium rigidum; assay: Post-emergence herbicidal action against Lolium rigidum
[8] = test system: Lolium rigidum (resistant biotype); assay: Post-emergence herbicidal action against Lolium rigidum (resistant biotype)
[9] = test system: Phalaris minor; assay: Post-emergence herbicidal action against Phalaris minor
[10] = test system: Bidens pilosa; assay: Post-emergence herbicidal action against Bidens pilosa
Protocol: as §1, §2, §3

[11] = test system: Digitaria sanguinalis; assay: Post-emergence herbicidal action against Digitaria sanguinalis; details: for Herbicidal action: 21 DAT
Protocol: as §1, §2, §3

[12] = test system: Lolium rigidum (resistant biotype); assay: Post-emergence herbicidal action against Lolium rigidum (resistant biotype); remark: listed apart in the source
Source text: (§4) The following abbreviations are used in the description and the tables that follow: • g of a.i./ha=grams of active substance (active ingredient) (=100% active compound) per hectare; • The sum total of the effects of the individual applications is reported under E^A; • expected values according to Colby are each reported under E^C.
(§5) The rating period is reported in days after application (DAT).

[13] = test system: Phalaris minor; assay: Post-emergence herbicidal action against Phalaris minor; details: 15 g of a.i./ha
Source text: as §4, §5

[14] = test system: Alopecurus myosuroides; assay: Post-emergence herbicidal action against Alopecurus myosuroides; details: 1.7 g of a.i./ha
Source text: as §4, §5

[15] = test system: Galium aparine; assay: Post-emergence herbicidal action against Galium aparine; details: for Herbicidal action in [%] 28 DAT against Galium aparine: post-emergence
Protocol: as §1, §2, §3

## C#CCN1C(=O)COc2cc(F)c(N3C(=O)C4=C(CCCC4)C3=O)cc21 [(B5.26) Flumioxazin]
[1]; 21 DAT, 1.33 g of a.i./ha
  pest or weed control at 1.33 g/ha: 0%
[1]; 21 DAT, 4 g of a.i./ha
  pest or weed control at 4 g/ha: 0%
[1]; 21 DAT, 12 g of a.i./ha
  pest or weed control at 12 g/ha: 10%

## Cc1nn(C)c(O)c1C(=O)c1ccc(C(F)(F)F)cc1S(C)(=O)=O [(B4.22) Pyrasulfotole]
[2]; 5 g of a.i./ha
  Herbicidal action in [%] 14 DAT against Poa annua L.: 0%
  Herbicidal action in [%] 28 DAT against Poa annua L.: 0%
[2]; 15 g of a.i./ha
  Herbicidal action in [%] 14 DAT against Poa annua L.: 0%
  Herbicidal action in [%] 28 DAT against Poa annua L.: 0%
[2]; 45 g of a.i./ha
  Herbicidal action in [%] 14 DAT against Poa annua L.: 0%
  Herbicidal action in [%] 28 DAT against Poa annua L.: 0%
[3]; 5 g of a.i./ha
  Herbicidal action in [%] 28 DAT against Centaurea cyanus: 0%
[3]; 15 g of a.i./ha
  Herbicidal action in [%] 14 DAT against Centaurea cyanus: 10%
  Herbicidal action in [%] 28 DAT against Centaurea cyanus: 0%
[3]; 45 g of a.i./ha
  Herbicidal action in [%] 14 DAT against Centaurea cyanus: 30%
  Herbicidal action in [%] 28 DAT against Centaurea cyanus: 20%
[4]; 5 g of a.i./ha
  Herbicidal action in [%] 14 DAT against Matricaria inodora: 20%
  Herbicidal action in [%] 28 DAT against Matricaria inodora: 10%
[5]; 5 g of a.i./ha
  Herbicidal action in [%] 14 DAT against Alopecurus myosuroides: 0%
  Herbicidal action in [%] 28 DAT against Alopecurus myosuroides: 0%
[5]; 15 g of a.i./ha
  Herbicidal action in [%] 14 DAT against Alopecurus myosuroides: 0%
  Herbicidal action in [%] 28 DAT against Alopecurus myosuroides: 0%
[5]; 45 g of a.i./ha
  Herbicidal action in [%] 14 DAT against Alopecurus myosuroides: 10%
  Herbicidal action in [%] 28 DAT against Alopecurus myosuroides: 10%
[6]; 5 g of a.i./ha
  Herbicidal action in [%] 14 DAT against Bromus sterilis: 0%
[6]; 15 g of a.i./ha
  Herbicidal action in [%] 14 DAT against Bromus sterilis: 0%
[6]; 45 g of a.i./ha
  Herbicidal action in [%] 14 DAT against Bromus sterilis: 10%
[7]; 5 g of a.i./ha
  Herbicidal action in [%] 14 DAT against Lolium rigidum: 0%
  Herbicidal action in [%] 28 DAT against Lolium rigidum: 0%
[7]; 15 g of a.i./ha
  Herbicidal action in [%] 14 DAT against Lolium rigidum: 5%
  Herbicidal action in [%] 28 DAT against Lolium rigidum: 0%
[7]; 45 g of a.i./ha
  Herbicidal action in [%] 14 DAT against Lolium rigidum: 5%
  Herbicidal action in [%] 28 DAT against Lolium rigidum: 10%
[8]; 5 g of a.i./ha
  Herbicidal action in [%] 14 DAT against Lolium rigidum (resistant biotype): 5%
  Herbicidal action in [%] 28 DAT against Lolium rigidum (resistant biotype): 0%
[8]; 15 g of a.i./ha
  Herbicidal action in [%] 14 DAT against Lolium rigidum (resistant biotype): 5%
  Herbicidal action in [%] 28 DAT against Lolium rigidum (resistant biotype): 0%
[8]; 45 g of a.i./ha
  Herbicidal action in [%] 14 DAT against Lolium rigidum (resistant biotype): 10%
[9]; 5 g of a.i./ha
  Herbicidal action in [%] 14 DAT against Phalaris minor: 0%
  Herbicidal action in [%] 28 DAT against Phalaris minor: 0%
[9]; 15 g of a.i./ha
  Herbicidal action in [%] 14 DAT against Phalaris minor: 0%
  Herbicidal action in [%] 28 DAT against Phalaris minor: 0%

## COCc1cnc(C2=NC(C)(C(C)C)C(=O)N2)c(C(=O)O)c1 (stereo not shown) [(B4.11) Imazamox]
[10]; 3.3 g of a.i./ha
  Herbicidal action 21 DAT [%] against Bidens pilosa: 20%
[10]; 30 g of a.i./ha
  Herbicidal action 21 DAT [%] against Bidens pilosa: 50%
[11]; 3.3 g of a.i./ha
  Herbicidal action 21 DAT [%] against Digitaria sanguinalis: 60%

## CP(=O)(O)CCC(N)C(=O)O (racemic) [(B7.4) Glufosinate-]
[10]; 21 DAT, 360 g a.i./ha
  Herbicidal action: 70%
[11]; 40 g a.i./ha
  Herbicidal action: 10%
[11]; 120 g a.i./ha
  Herbicidal action: 30%

## COc1cc(OC)nc(NC(=O)NS(=O)(=O)c2cc(CNS(C)(=O)=O)ccc2C(=O)O)n1 [(B2.37) Mesosulfuron]
[3]; 5 g of a.i./ha
  Herbicidal action 28 DAT against Centaurea cyanus: 60%
[4]; 15 g of a.i./ha
  Herbicidal action 14 DAT against Matricaria inodora: 75%
  Herbicidal action 28 DAT against Matricaria inodora: 65%
[12]; 1.7 g of a.i./ha
  Herbicidal action 14 DAT against Lolium rigidum (resistant biotype): 20%
  Herbicidal action 28 DAT against Lolium rigidum (resistant biotype): 0%
[12]; 5 g of a.i./ha
  Herbicidal action 14 DAT against Lolium rigidum (resistant biotype): 30%
  Herbicidal action 28 DAT against Lolium rigidum (resistant biotype): 0%
[12]; 15 g of a.i./ha
  Herbicidal action 14 DAT against Lolium rigidum (resistant biotype): 30%
  Herbicidal action 28 DAT against Lolium rigidum (resistant biotype): 20%
[13]
  Herbicidal action 28 DAT against Phalaris minor: 85%
[14]
  Herbicidal action 28 DAT against Alopecurus myosuroides: 75%

## CCOC(=O)COc1ncccc1Oc1cc(-n2c(=O)cc(C(F)(F)F)n(C)c2=O)c(F)cc1Cl [(B9.14), ethyl [3-[2-chloro-4-fluoro-5-(1-methyl-6-trifluoromethyl-2,4-dioxo-1,2,3,4-tetrahydropyrimidin-3-yl)phenoxy]-2-pyridyloxy]acetate, reference compound]
[2]; 5 g of a.i./ha
  Herbicidal action in [%] 28 DAT against Poa annua: 80%
[2]; 10 g of a.i./ha
  Herbicidal action in [%] 28 DAT against Poa annua: 60%
[3]; 2.5 g of a.i./ha, post-emergence
  Herbicidal action in [%] 28 DAT against Centaurea cyano: 90%
[15]; 5 g of a.i./ha
  Herbicidal action in [%] 28 DAT against Galium aparine: 90%
[15]; 10 g of a.i./ha
  Herbicidal action in [%] 28 DAT against Galium aparine: 90%
[4]; 10 g of a.i./ha, post-emergence
  Herbicidal action in [%] 28 DAT against Matricaria inodora: 98%

## CCc1cnc(C2=NC(C)(C(C)C)C(=O)N2)c(C(=O)O)c1 (stereo not shown) [(B4.15) Imazethapyr]
[1]; 3.33 g of a.i./ha, read-out: Herbicidal action 21 DAT [%] against Amaranthus palmeri
  pest or weed control at 3.33 g/ha: 0%
[1]; 10 g of a.i./ha, read-out: Herbicidal action 21 DAT [%] against Amaranthus palmeri
  pest or weed control at 10 g/ha: 0%
[1]; 30 g of a.i./ha, read-out: Herbicidal action 21 DAT [%] against Amaranthus palmeri
  pest or weed control at 30 g/ha: 10%
[10]; 3.33 g of a.i./ha
  Herbicidal action 21 DAT [%] against Bidens pilosa: 0%
[10]; 10 g of a.i./ha
  Herbicidal action 21 DAT [%] against Bidens pilosa: 0%
[10]; 30 g of a.i./ha
  Herbicidal action 21 DAT [%] against Bidens pilosa: 25%

## CC(C)N.O=C(O)CNCP(=O)(O)O [(CAS 38641-94-0)]
[15]; 28 DAT, 150 g a.i./ha
  Herbicidal action: 40%
